According to ChEMBL document CHEMBL1122303, “Synthesis and biological activity of a 2-bromoethylamine (mustard) derivative of hemicholinium-3 and hemicholinium-15” (1983):

Assays:
Format in all cases: functional
Rattus norvegicus [1] = organism: Rattus norvegicus; assay: In vitro inhibition of sodium-dependent high-affinity choline uptake activity (1 uM choline) at 2E-5 M concentration in the presence of thiosulfate
Rattus norvegicus [2] = organism: Rattus norvegicus; assay: In vitro inhibition of sodium-dependent high-affinity choline uptake activity (1 uM choline) at 2E-5 M concentration in the absence of thiosulfate
Rattus norvegicus [3] = organism: Rattus norvegicus; assay: In vitro inhibition of sodium-dependent high-affinity choline uptake activity (1 uM choline) at 1E-7 M concentration in the presence of thiosulfate
Rattus norvegicus [4] = organism: Rattus norvegicus; assay: Na-dependent high-affinity choline uptake at 25 nM concentration for 7.5 min post wash pre-incubation time.
Rattus norvegicus [5] = organism: Rattus norvegicus; assay: inhibition of sodium-dependent high-affinity choline uptake activity at 25 nM concentration for 15 min post wash pre-incubation time.
Rattus norvegicus [6] = organism: Rattus norvegicus; assay: In vitro inhibition of sodium-dependent high-affinity choline uptake activity (1 uM choline) at 5E-8 M concentration in the presence of thiosulfate
Rattus norvegicus [7] = organism: Rattus norvegicus; assay: In vitro inhibition of sodium-dependent high-affinity choline uptake activity (1 uM choline) at 1E-7 M concentration in the absence of thiosulfate
Rattus norvegicus [8] = organism: Rattus norvegicus; assay: Na-dependent high-affinity choline uptake at 25 nM concentration for 15 min post wash preincubation time.
Rattus norvegicus [9] = organism: Rattus norvegicus; assay: inhibition of sodium-dependent high-affinity choline uptake activity at 25 nM concentration for 2.5 min post wash pre-incubation time.
Rattus norvegicus [10] = organism: Rattus norvegicus; assay: Na-dependent high-affinity choline uptake at 25 nM concentration for 2.5 min post wash pre-incubation time.
Rattus norvegicus [11] = organism: Rattus norvegicus; assay: In vitro inhibition of sodium-dependent high-affinity choline uptake activity (1 uM choline) at 1E-8 M concentration in the absence of thiosulfate
Rattus norvegicus [12] = organism: Rattus norvegicus; assay: In vitro inhibition of sodium-dependent high-affinity choline uptake activity (1 uM choline) at 5E-8 M concentration in the absence of thiosulfate
Rattus norvegicus [13] = organism: Rattus norvegicus; assay: inhibition of sodium-dependent high-affinity choline uptake activity at 25 nM concentration for 7.5 min post wash pre-incubation time.

Q: Which results are given for `OC1(c2ccccc2)CN(CCBr)CCO1` (configuration not stated)?
A: Inhibition (Rattus norvegicus [1]): 9%; Inhibition (Rattus norvegicus [2]): 71%

Q: With `C[N+]1(C)CCOC(O)(c2ccccc2)C1` (configuration not stated) as the molecule, how does the Inhibition (Rattus norvegicus [2]) read?
A: Its Inhibition is 58%.

Q: How did the Inhibition (Rattus norvegicus [3]) turn out when `OC1(c2ccc(-c3ccc(C4(O)CN(CCBr)CCO4)cc3)cc2)CN(CCBr)CCO1` (configuration not stated) was run?
A: Its Inhibition is 0%.

Q: What about the Choline uptake (Rattus norvegicus [4]) of the same molecule?
A: The Choline uptake was 59.8 pM (4 min)-1 (mg of protein)-1.

Q: What about the Inhibition (Rattus norvegicus [5]) of the same molecule?
A: Its Inhibition is 34%.

Q: And the Inhibition (Rattus norvegicus [6])?
A: Its Inhibition is 0%.

Q: And the Inhibition (Rattus norvegicus [7])?
A: The Inhibition was 100%.

Q: And the Choline uptake (Rattus norvegicus [8])?
A: The Choline uptake was 54.9 pM (4 min)-1 (mg of protein)-1.

Q: And the Inhibition (Rattus norvegicus [9])?
A: Its Inhibition is 31.2%.

Q: What about the Choline uptake (Rattus norvegicus [10]) of the same molecule?
A: Its Choline uptake is 58.8 pM (4 min)-1 (mg of protein)-1.

Q: What about the Inhibition (Rattus norvegicus [11]) of the same molecule?
A: Its Inhibition is 84%.

Q: What about the Inhibition (Rattus norvegicus [12]) of the same molecule?
A: The Inhibition was 100%.

Q: What about the Inhibition (Rattus norvegicus [13]) of the same molecule?
A: Its Inhibition is 32.9%.

Q: `C[N+]1(C)CCOC(O)(c2ccc(-c3ccc(C4(O)C[N+](C)(C)CCO4)cc3)cc2)C1` (configuration not stated) [HEMICHOLINIUM-3] was tested. Which Inhibition (Rattus norvegicus [6]) did it give?
A: The Inhibition was 85%.

Q: And the Inhibition (Rattus norvegicus [11])?
A: The Inhibition was 35%.

Q: And the Inhibition (Rattus norvegicus [12])?
A: Its Inhibition is 83%.
